Experimental findings from ChEMBL document CHEMBL5321272 (J Med Chem, 2023) are described below.

Structures are written as SMILES. Calls of active or inactive are those of the source. The calls are words filed in the database; no cut-off is given here. A value given as a limit tells only on which side of the number the result lay.

What is called IC50 is the midpoint of a concentration-inhibition curve. What is called inhibition is the percentage by which the read-out fell short of the control.

Data set [1] concerns the target Hepatocyte growth factor receptor (Homo sapiens, UniProt P08581). Nature of the data set: Inhibition of MET (unknown origin) by HTRF assay. On the technique in general: In TR-FRET formats the signal depends on donor and acceptor labels being close together.
Data set [2] deals with Receptor-type tyrosine-protein kinase FLT3 (Homo sapiens, UniProt P36888, D835Y).
Description: Inhibition of FLT3 D835Y mutant (unknown origin) using peptide substrate TK-S and ATP as substrate incubated for 1 hr by HTRF assay
Data set [3] has as its target Receptor-type tyrosine-protein kinase FLT3 (Homo sapiens) (UniProt P36888). The experiment in a line: Inhibition of FLT3 in human MV4-11 cells assessed as inhibition of FLT3 phosphorylation at 20 nM measured after 90 mins by western blot analysis. The class given is cell-based. (Immunoblotting shows a protein as a band on a membrane.)
Data set [4] is described as follows: Selectivity ratio of IC50 for MET (unknown origin) to IC50 for FLT3-ITD mutant (unknown origin).
For a further data set, the system named is Z-138. Nature of the data set: Antiproliferative activity against human Z138 cells assessed as reduction in cell viability incubated for 72 hrs by CellTiter 96 Aqueous One Solution Cell Proliferation Assay. The note with it: Z-138, 72 h. The class given is functional, cell-based.
Data set [5] deals with BaF3. Nature of the data set: cells. As to conditions: Mus musculus, BaF3, 72 h.
Description: Antiproliferative activity against mouse BaF3 cells harboring FLT3-ITD-N701K mutation assessed as reduction in cell viability incubated for 72 hrs by CellTiter 96 Aqueous One Solution Cell Proliferation Assay
A short description of data set [6]: Acute toxicity in ICR mouse assessed as morphological changes in lungs at 300 mg/kg, ig and measured for 7 days by Hematoxylin-Eosin staining based analysis. It counts as organism-based. As to conditions: in vivo, po, 168 h, time 7 day.
In data set [7] the test system is BaF3. The experiment in a line: Antiproliferative activity against mouse BaF3 cells harboring FLT3 F691L mutant assessed as reduction in cell viability incubated for 72 hrs by CellTiter 96 Aqueous One Solution Cell Proliferation Assay. The class given is functional, cell-based.
The nature of data set [8]: Selectivity ratio of IC50 for P70S6K (unknown origin) to IC50 for FLT3-ITD mutant (unknown origin).
In another data set the test system is MOLM-13. The experiment in a line: Antitumor activity against human MOLM-13 cells xenografted in NSG mouse assessed as animal's survival rate at 30 mg/kg, po qd for 26 days (reference value: 17 days). It counts as functional. As to conditions: time 26 day. On the technique in general: A xenograft is tissue or cells of one species grown in another, often human tumour cells in immunodeficient mice.

The target of data set [9] is T1, Serine/threonine-protein kinase Chk1 (Homo sapiens) (UniProt O14757).
T1 sequence (whole entry): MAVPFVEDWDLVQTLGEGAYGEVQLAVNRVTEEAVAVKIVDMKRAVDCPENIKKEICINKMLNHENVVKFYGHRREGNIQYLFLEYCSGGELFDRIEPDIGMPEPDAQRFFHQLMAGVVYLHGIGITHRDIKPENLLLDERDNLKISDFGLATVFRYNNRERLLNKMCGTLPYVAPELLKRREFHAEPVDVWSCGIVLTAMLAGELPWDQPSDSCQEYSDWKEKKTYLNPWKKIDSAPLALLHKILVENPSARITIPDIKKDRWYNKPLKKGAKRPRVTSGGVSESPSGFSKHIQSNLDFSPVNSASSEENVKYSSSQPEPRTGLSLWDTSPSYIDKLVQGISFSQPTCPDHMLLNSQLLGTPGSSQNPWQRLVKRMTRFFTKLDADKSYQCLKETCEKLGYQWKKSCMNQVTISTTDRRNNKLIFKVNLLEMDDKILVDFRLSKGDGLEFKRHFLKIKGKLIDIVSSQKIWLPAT
Nature of the data set: Inhibition of CHK1 in human MV4-11 cells assessed as downregulation of c-Myc protein expression at 50 to 200 nM measured after 90 mins by western blot analysis. It counts as cell-based. As to conditions: dose 50-200 nM.

Chain of Hepatocyte growth factor receptor (P08581 whole entry): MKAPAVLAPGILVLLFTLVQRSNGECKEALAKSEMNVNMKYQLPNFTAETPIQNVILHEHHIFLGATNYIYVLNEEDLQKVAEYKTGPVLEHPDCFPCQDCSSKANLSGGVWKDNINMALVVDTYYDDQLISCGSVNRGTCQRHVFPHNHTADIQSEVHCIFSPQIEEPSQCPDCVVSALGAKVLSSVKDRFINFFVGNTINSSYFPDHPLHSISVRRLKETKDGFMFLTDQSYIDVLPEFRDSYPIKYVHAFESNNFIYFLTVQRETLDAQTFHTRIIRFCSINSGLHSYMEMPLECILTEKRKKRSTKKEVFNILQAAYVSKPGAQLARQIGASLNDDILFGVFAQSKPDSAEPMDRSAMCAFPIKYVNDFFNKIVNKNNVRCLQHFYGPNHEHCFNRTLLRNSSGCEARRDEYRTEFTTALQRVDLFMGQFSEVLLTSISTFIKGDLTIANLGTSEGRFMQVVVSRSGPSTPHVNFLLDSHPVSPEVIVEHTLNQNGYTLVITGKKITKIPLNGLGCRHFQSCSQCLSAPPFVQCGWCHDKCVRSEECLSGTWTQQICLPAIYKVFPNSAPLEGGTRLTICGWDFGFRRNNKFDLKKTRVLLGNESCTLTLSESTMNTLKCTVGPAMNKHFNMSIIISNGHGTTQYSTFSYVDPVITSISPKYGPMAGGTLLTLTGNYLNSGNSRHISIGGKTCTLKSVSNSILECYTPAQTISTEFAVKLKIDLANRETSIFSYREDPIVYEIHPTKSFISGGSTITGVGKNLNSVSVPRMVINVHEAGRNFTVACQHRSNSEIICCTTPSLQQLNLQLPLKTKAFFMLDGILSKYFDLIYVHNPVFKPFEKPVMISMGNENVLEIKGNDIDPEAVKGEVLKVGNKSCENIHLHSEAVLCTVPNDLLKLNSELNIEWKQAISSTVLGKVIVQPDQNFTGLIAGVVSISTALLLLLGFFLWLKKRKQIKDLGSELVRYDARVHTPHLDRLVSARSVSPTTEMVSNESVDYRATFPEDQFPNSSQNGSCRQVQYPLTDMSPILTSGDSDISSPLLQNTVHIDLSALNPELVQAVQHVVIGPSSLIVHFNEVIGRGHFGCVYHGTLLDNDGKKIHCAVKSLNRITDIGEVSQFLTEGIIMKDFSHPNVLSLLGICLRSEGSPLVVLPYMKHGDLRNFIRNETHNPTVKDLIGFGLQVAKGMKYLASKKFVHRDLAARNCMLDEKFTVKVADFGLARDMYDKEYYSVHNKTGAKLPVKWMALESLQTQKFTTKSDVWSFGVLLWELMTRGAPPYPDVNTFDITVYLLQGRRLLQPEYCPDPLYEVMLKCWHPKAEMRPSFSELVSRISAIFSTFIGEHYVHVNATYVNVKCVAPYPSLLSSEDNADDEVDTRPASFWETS

As for `CC(C)(O)CC(=O)N1CCc2cc(Nc3ncc(C(F)(F)F)c(N[C@H]4CC[C@@H](N)CC4)n3)ccc2C1`, the concentration for half-maximal inhibition (IC50) is above 10000 nM in [1], 1.08 nM in data set [2], 115 nM in the data set on Z-138 and 8.2 nM with BaF3 [5]. Also, the inhibition in data set [3] worked out at 100%. The Ratio IC50 in data set [4] and in [8] was above 100 in each case. In data set [6], the Activity entry was “Non-Toxic”. Further, the result with BaF3 [7] was Active. The Survival with MOLM-13 is 22 days. In data set [9], the inhibition entry was “Active”.
